The text below walks through data of patent US8507538B2, “Selective heterocyclic sphingosine 1 phosphate receptor modulators” (Receptos, Inc., priority 2009, dated 2013).

Where two headings read alike, the source gives them in different places.

One test deals with T1, S1P5 (Homo sapiens, UniProt Q9H228).
T1 construct: Tango fusion (own knowledge: TEV protease site + GAL4-VP16 transcription factor fused to the receptor's C-terminus); host or cells: Tango bla U2OS
Nature of the test: Specificity over other S1P receptors: S1P5-bla TANGO U2OS. The class given is cell-based. The settings on record: without Forskolin, FreeStyle Expression medium; read-out: S1P5 agonist value (EC50). The method, then: (§1) Cells were seeded into 384-well black wall/clear bottom plates at 10^4 cells/well/19.5 μl assay media (DMEM-phenol free, 0.5% charcoal/dextran stripped serum, 2 mM glutamine, 0.1 mM NEAA, 1 mM Na-Pyruvate, 25 mM Hepes) and incubated for 18 hrs at 37° C. in 5% CO2. Dose response curves (10-point) were generated in 10 mM Hepes, 0.1% Pluronic F127, in the presence of Forskolin. Cells were treated with 0.5 μl compound in the presence of 2 μM Forskolin for 4 hrs at 37° C. The FRET-based β-lactamase fluorescent substrate (LiveBLAzer™ FRET B/G Loading Kit CC4-AM; Invitrogen) was prepared according to manufacturer's directions, and incubated with cells for 2 hrs at room temperature. Plates were read at Ex:410/Em:458 and Ex:410/Em:522, and the response ratio determined. Data was analyzed by non-linear regression to determine the EC50 for inhibition of Forskolin induced cAMP.
(§2) To assess compound specificity on other S1P receptors the following cell lines were used: S1P2 CRE-bla CHOK1, S1P3-Gα15 NFAT-bla HEK293T (Invitrogen), S1P4-bla TANGO U2OS (Invitrogen), S1P5-bla TANGO U2OS (Invitrogen). The same assay set up for S1P1 was used but without Forskolin. S1P4 and S1P5 assays were performed in FreeStyle Expression medium (Invitrogen). S1P5 cells were incubated for 48 hrs in prior to treatment with compound.

Test [1] has as its system CD4 or CD8 positive T cells. Nature of the test: Lymphopenia in rats. The class given is in vivo. The settings on record: rat, at 24 h after a 3-5 day dosing regimen.
The target in the next test is T2, S1P3 (Homo sapiens, UniProt Q99500).
T2 construct: host or cells: NFAT-bla HEK293T co-expressing Gα15
Kind of test: Specificity over other S1P receptors: S1P3-Gα15 NFAT-bla HEK293T. The class given is cell-based. The note with it: without Forskolin; read-out: S1P3 agonist value (EC50). The method, then: as §1, §2

The subject of test [2] is CD4 or CD8 positive T cells. Nature of the test: Lymphopenia in rats. The class given is in vivo. The settings on record: rat, 24 h after a 0.2 mg/kg single dose; for inhibition in vivo at 0.2 mg/kg: CD8 positive, po. Here is the method:
In rats: Female rats (Simonsen Laboratories, Gilroy Calif.) were housed in an ALAAC accredited facility and the research was approved by the facilities Institutional Animal Care and Use Committee (IACUC). The animals were acclimated to the laboratory for at least 5 days prior to initiation of experiments. Rats (n=3/compound/time-point) were dosed by oral gavage with 1 mg/kg compound formulated in a vehicle consisting of 5% DMSO/5% Tween 20 and 90% 0.1N HCL. Control rats were dosed PO with the vehicle. Whole blood was collected from isoflurane anesthetized rats via the retro-orbital sinus and terminal samples were collected by cardiac puncture into EDTA. Whole blood was incubated with mouse anti-rat CD32 (BD #550271), PE-mouse anti-rat CD45R/B220 (BD #554881), PECy5-mouse anti-rat CD4 (BD #554839), and APC-mouse anti-rat CD8a (eBioscience #17-0084) for 30 minutes on ice. Red blood cells were lysed using BD Pharm. Lyse Lysing buffer (#555899) and white blood cells were analyzed with a BD FACSArray. Lymphopenia was expressed as the % of white blood cells that were CD4 or CD8 positive T cells. The overall lymphopenia response over 24 h was estimated by calculating the area under the effect curve (AUEC) using the linear trapezoidal rule. In some experiments, total lymphocyte counts were determined using a standard impediance based veterinary hematology analyzer (IDEXX Preclinical Research Services, Sacramento, Calif.).
The percentage of lymphopenia at 24 h after a 0.2 mg/kg single dose regiment is reported. […] N/A is not available.

For a further test, the target named is S1P1/EDG1 (Homo sapiens, UniProt P21453). Kind of test: S1P1 CRE-bla CHOK1 reporter assay (inhibition of Forskolin induced cAMP). The class given is cell-based. The gist of the method:
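Stable CRE-bla CHO-K1 clone expressing human S1P1, serum-starved (0.5% stripped serum) 18 h, then treated with compound (10-point curve) plus 2 μM forskolin for 4 h at 37 °C. β-lactamase FRET ratio (458/522 nm) read after 2 h substrate loading; EC50 for inhibition of forskolin-induced cAMP by non-linear regression.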

A further test has as its target T3, S1P4 (Homo sapiens, UniProt O95977).
T3 construct: Tango fusion (own knowledge: TEV protease site + GAL4-VP16 transcription factor fused to the receptor's C-terminus); host or cells: Tango bla U2OS
T3 sequence (O95977 1-384): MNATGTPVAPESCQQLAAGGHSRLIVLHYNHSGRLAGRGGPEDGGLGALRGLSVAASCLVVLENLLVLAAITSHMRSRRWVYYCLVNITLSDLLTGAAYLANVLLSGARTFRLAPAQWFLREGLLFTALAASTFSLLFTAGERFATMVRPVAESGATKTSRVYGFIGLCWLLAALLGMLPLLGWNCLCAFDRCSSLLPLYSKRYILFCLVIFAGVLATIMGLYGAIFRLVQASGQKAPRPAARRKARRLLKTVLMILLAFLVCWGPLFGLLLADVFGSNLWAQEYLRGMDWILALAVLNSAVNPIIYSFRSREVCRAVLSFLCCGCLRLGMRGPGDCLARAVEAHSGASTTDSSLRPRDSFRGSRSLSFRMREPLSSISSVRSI
Kind of test: Specificity over other S1P receptors: S1P4-bla TANGO U2OS. The note with it: without Forskolin, FreeStyle Expression medium; read-out: S1P4 agonist value (EC50). The class given is cell-based. The method, then:
as §1, §2

The next test concerns the target T4, S1P2 (Homo sapiens, UniProt O95136).
T4 construct: expressed in transfected cells; host or cells: CRE-bla CHOK1
Kind of test: Specificity over other S1P receptors: S1P2 CRE-bla CHOK1. The note with it: without Forskolin; read-out: S1P2 agonist value (EC50). The class given is cell-based. The method, then:
as §1, §2

Setting [3] is: Table 3, read-out: S1P1 agonist value (EC50).

Chain of S1P1/EDG1 (P21453 whole entry): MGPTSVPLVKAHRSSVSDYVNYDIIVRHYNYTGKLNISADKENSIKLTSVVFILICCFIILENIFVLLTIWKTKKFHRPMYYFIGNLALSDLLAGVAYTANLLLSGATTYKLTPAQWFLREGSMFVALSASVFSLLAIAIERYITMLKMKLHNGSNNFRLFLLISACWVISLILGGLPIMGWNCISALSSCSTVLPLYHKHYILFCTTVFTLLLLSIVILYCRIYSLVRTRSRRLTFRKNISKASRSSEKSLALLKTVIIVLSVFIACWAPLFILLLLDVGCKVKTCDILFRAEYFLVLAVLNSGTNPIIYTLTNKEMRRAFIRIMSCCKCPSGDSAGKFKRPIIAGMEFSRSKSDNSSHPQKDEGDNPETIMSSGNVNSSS
T1 sequence (Q9H228 whole entry, the tested form may be a part): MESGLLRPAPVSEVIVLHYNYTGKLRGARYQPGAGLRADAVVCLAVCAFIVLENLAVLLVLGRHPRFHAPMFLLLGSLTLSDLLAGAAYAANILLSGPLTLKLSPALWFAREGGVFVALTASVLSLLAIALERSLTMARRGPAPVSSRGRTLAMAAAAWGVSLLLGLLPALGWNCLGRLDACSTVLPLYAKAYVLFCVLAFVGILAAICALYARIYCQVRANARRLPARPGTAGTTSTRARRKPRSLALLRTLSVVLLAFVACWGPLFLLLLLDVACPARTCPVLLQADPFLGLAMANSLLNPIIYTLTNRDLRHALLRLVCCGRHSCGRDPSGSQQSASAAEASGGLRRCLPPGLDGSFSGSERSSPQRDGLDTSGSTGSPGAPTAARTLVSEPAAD
T2 sequence (Q99500 whole entry): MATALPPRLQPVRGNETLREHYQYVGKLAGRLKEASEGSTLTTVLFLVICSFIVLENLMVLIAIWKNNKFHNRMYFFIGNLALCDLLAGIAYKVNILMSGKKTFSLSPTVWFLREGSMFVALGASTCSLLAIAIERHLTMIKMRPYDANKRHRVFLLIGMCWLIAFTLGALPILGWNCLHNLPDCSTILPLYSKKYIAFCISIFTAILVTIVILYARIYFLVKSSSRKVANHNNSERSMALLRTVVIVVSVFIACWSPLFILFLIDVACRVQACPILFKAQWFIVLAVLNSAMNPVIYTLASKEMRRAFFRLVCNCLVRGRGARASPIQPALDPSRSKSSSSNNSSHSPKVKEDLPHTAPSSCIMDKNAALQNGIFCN
T4 sequence (O95136 whole entry, species assumed): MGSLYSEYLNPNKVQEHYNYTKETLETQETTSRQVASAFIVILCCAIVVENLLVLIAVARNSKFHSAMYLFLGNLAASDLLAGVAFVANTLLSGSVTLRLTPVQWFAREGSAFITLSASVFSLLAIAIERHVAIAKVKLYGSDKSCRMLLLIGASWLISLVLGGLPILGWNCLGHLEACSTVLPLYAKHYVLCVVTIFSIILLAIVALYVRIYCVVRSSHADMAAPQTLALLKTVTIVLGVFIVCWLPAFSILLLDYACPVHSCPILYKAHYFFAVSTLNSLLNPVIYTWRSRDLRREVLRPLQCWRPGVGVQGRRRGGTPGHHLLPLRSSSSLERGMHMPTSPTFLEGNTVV

Consider `CC(C)Oc1ccc(-c2ncc(-c3cccc4c3CC[C@H]4NC(=O)N3CCOCC3)s2)cc1C#N` [Compound 186, (R)-N-(4-(2-(3-cyano-4-isopropoxyphenyl)thiazol-5-yl)-2,3-dihydro-1H-inden-1-yl)morpholine-4-carboxamide], for which the results for the EC50 on S1P5, at S1P3 and on S1P1/EDG1 (setting [3]) were 126 nM, > 10000 nM and 0.41 nM, respectively. For the same compound, in test [1] (CD8 positive, read-out: ED50, estimated dose needed to produce 50% lymphopenia), the ED50 is 0.2 mg/kg. Besides, in test [2], at 0.2 mg/kg the inhibition in vivo was 25%.
In the case of `CC(C)Oc1ccc(-c2nnc(-c3cccc4c3CC[C@@H]4NS(N)(=O)=O)s2)cc1C#N` [Compound 47, (S)-N-(4-(5-(3-cyano-4-isopropoxyphenyl)-1,3,4-thiadiazol-2-yl)-2,3-dihydro-1H-inden-1-yl)sulfamide], the EC50 was 22 nM on S1P5; > 10000 nM on S1P3; > 10000 nM at S1P4; 0.03 nM on S1P1/EDG1 (setting [3]); < 0.05 nM at S1P1/EDG1 (agonist activity range, Table 2, read-out: S1P1 ACTIVITY); > 10000 nM on S1P2. Also, in test [2], 0.2 mg/kg produced 17% inhibition in vivo.
For the compound “(R)-N-(4-(5-(3-cyano-4-isopropoxyphenyl)-1,3,4-thiadiazol-2-yl)-2,3-dihydro-1H-inden-1-yl)-2-hydroxyethanesulfonamide [Compound 46]”, the EC50 at S1P5 turned out to be 194 nM; at S1P4, 2170 nM; on S1P1/EDG1 (setting [3]) it was 0.25 nM. Moreover, the “% Lymphopenia after 24 h (0.2 mg/kg)” value in test [2] is 39%.
As to “(R)-N-(4-(2-(3-cyano-4-isopropoxyphenyl)thiazol-5-yl)-2,3-dihydro-1H-inden-1-yl)pyrrolidine-1-carboxamide [Compound 172]”, the “ED50, estimated dose needed to produce 50% lymphopenia” value in test [1] is on record as 0.20 mg/kg. Moreover, the “% Lymphopenia after 24 h (0.2 mg/kg)” value in test [2] is given as 22%.

In general, ED50 refers to the dose that gives a 50% effect, or the effect in half of the subjects. The term inhibition in vivo denotes the share of the control response that was lost under treatment. Low values mean a weak effect, high ones a strong effect.
